Reference: the supplement of paper PMC10307832

Tests used:
Assay in all cases: relative viability (nuclei count vs DMSO), 5 days (fraction); higher = more cells survive
NCI-H2170 = test system: NCI-H2170
Procedure, shortened: (§1)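 Nuclei were stained with Hoechst during a one-step fixation (final 0.05% Triton X-100, 1% formaldehyde, 1 ug/ml Hoechst) carried out 5 days after dosing, then counted on 4× images. The cells, lung cancer lines in 1536-well plates, had been dosed by pin tool the day after seeding with one drug alone or a fixed anchor-drug dose plus five library-drug doses (not always all listed) in √10 steps. Relative viability is the nuclei count in treated wells divided by that in vehicle wells, and each value is the median of duplicate plates.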

NCI-H650 = test system: NCI-H650
Procedure, shortened: as §1

NCI-H1915 = test system: NCI-H1915
Procedure, shortened: as §1

NCI-H520 = test system: NCI-H520
Procedure, shortened: as §1

NCI-H2347 = test system: NCI-H2347
Procedure, shortened: as §1

LXF-289 = test system: LXF-289
Procedure, shortened: as §1

LCLC-103H = test system: LCLC-103H
Procedure, shortened: as §1

NCI-H661 = test system: NCI-H661
Procedure, shortened: as §1

PC-14 = test system: PC-14
Procedure, shortened: as §1

SK-MES-1 = test system: SK-MES-1
Procedure, shortened: as §1

NCI-H596 = test system: NCI-H596
Procedure, shortened: as §1

COc1cc(N2CCC(C(N)=O)CC2)ccc1Nc1nc(N)c(Cl)c(Nc2ccccc2S(=O)(=O)C(C)C)n1 [HG-5-88-01] + C[C@@H](Oc1cc(-c2cnn(C3CCNCC3)c2)cnc1N)c1c(Cl)ccc(F)c1Cl [Crizotinib] (partner 1 µM)
relative viability (NCI-H2170; first compound 0.04 µM): 1.23 | relative viability (NCI-H2170; first compound 0.1265 µM): 1.24 | relative viability (NCI-H2170; first compound 0.4 µM): 1.18 | relative viability (NCI-H2170; first compound 1.265 µM): 0.977 | relative viability (NCI-H2170; first compound 4 µM): 1.28 | relative viability (NCI-H650; first compound 0.04 µM): 0.812 | relative viability (NCI-H650; first compound 0.1265 µM): 0.739 | relative viability (NCI-H650; first compound 0.4 µM): 0.579 | relative viability (NCI-H650; first compound 1.265 µM): 0.519 | relative viability (NCI-H650; first compound 4 µM): 0.398 | relative viability (NCI-H1915; first compound 0.04 µM): 0.926 | relative viability (NCI-H1915; first compound 0.1265 µM): 0.885 | relative viability (NCI-H1915; first compound 0.4 µM): 0.906 | relative viability (NCI-H1915; first compound 1.265 µM): 0.928 | relative viability (NCI-H1915; first compound 4 µM): 0.808 | relative viability (NCI-H520; first compound 0.04 µM): 0.907 | relative viability (NCI-H520; first compound 0.1265 µM): 0.704 | relative viability (NCI-H520; first compound 0.4 µM): 0.711 | relative viability (NCI-H520; first compound 1.265 µM): 0.762 | relative viability (NCI-H520; first compound 4 µM): 0.663 | relative viability (NCI-H2347; first compound 0.04 µM): 0.779 | relative viability (NCI-H2347; first compound 0.1265 µM): 0.81 | relative viability (NCI-H2347; first compound 0.4 µM): 0.834 | relative viability (NCI-H2347; first compound 1.265 µM): 0.634 | relative viability (NCI-H2347; first compound 4 µM): 0.744 | relative viability (LXF-289; first compound 0.04 µM): 0.804 | relative viability (LXF-289; first compound 0.1265 µM): 0.797 | relative viability (LXF-289; first compound 0.4 µM): 0.851 | relative viability (LXF-289; first compound 1.265 µM): 0.831 | relative viability (LXF-289; first compound 4 µM): 0.827 | relative viability (LCLC-103H; first compound 0.04 µM): 0.987 | relative viability (LCLC-103H; first compound 0.1265 µM): 0.955 | relative viability (LCLC-103H; first compound 0.4 µM): 0.95 | relative viability (LCLC-103H; first compound 1.265 µM): 0.923 | relative viability (LCLC-103H; first compound 4 µM): 0.985 | relative viability (NCI-H661; first compound 0.1265 µM): 0.964 | relative viability (NCI-H661; first compound 0.4 µM): 1.1 | relative viability (NCI-H661; first compound 1.265 µM): 0.777 | relative viability (NCI-H661; first compound 4 µM): 0.926 | relative viability (PC-14; first compound 0.04 µM): 0.863 | relative viability (PC-14; first compound 0.1265 µM): 0.972 | relative viability (PC-14; first compound 0.4 µM): 0.914 | relative viability (PC-14; first compound 1.265 µM): 0.783 | relative viability (PC-14; first compound 4 µM): 0.238 | relative viability (SK-MES-1; first compound 0.04 µM): 0.96 | relative viability (SK-MES-1; first compound 0.1265 µM): 0.988 | relative viability (SK-MES-1; first compound 0.4 µM): 1.01 | relative viability (SK-MES-1; first compound 1.265 µM): 0.978 | relative viability (SK-MES-1; first compound 4 µM): 0.923 | relative viability (NCI-H596; first compound 0.04 µM): 0.949 | relative viability (NCI-H596; first compound 0.1265 µM): 1.04 | relative viability (NCI-H596; first compound 0.4 µM): 1.02 | relative viability (NCI-H596; first compound 1.265 µM): 0.936 | relative viability (NCI-H596; first compound 4 µM): 0.734
